Measurements published in PubChem BioAssay (NCI).
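1) Cells in 96-well plates. 2) Compound, 48 h, 5 concentrations. 3) Linear interpolation between surrounding doses. 4) Unreached endpoint = highest concentration. TGI: concentration producing complete growth inhibition.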

Columns and labels:
Test in all cases: NCI tumour cell line growth inhibition, 48 h
DU-145 prostate = tested on: DU-145 prostate
U251 CNS = tested on: U251 CNS
MALME-3M melanoma = tested on: MALME-3M melanoma
MDA-MB-435 = tested on: MDA-MB-435
SF-268 CNS = tested on: SF-268 CNS
786-0 renal = tested on: 786-0 renal
ACHN renal = tested on: ACHN renal
SF-295 CNS = tested on: SF-295 CNS
NCI-H23 lung = tested on: NCI-H23 lung
T-47D breast = tested on: T-47D breast
LOX IMVI melanoma = tested on: LOX IMVI melanoma
HCT-15 colon = tested on: HCT-15 colon
HCT-116 colon = tested on: HCT-116 colon
SR leukemia = tested on: SR leukemia
PC-3 prostate = tested on: PC-3 prostate
NCI-H522 lung = tested on: NCI-H522 lung
HS 578T breast = tested on: HS 578T breast
KM12 colon = tested on: KM12 colon
MOLT-4 leukemia = tested on: MOLT-4 leukemia
SW-620 colon = tested on: SW-620 colon
HT29 colon = tested on: HT29 colon
UACC-62 melanoma = tested on: UACC-62 melanoma
SF-539 CNS = tested on: SF-539 CNS
SK-MEL-28 melanoma = tested on: SK-MEL-28 melanoma
HCC-2998 colon = tested on: HCC-2998 colon
NCI-H226 lung = tested on: NCI-H226 lung
A498 renal = tested on: A498 renal
OVCAR-8 ovarian = tested on: OVCAR-8 ovarian
SNB-75 CNS = tested on: SNB-75 CNS
SN12C renal = tested on: SN12C renal
COLO 205 colon = tested on: COLO 205 colon
SK-OV-3 ovarian = tested on: SK-OV-3 ovarian
HOP-62 NSCLC = tested on: HOP-62 NSCLC
SNB-19 CNS = tested on: SNB-19 CNS
NCI-H460 lung = tested on: NCI-H460 lung
OVCAR-5 ovarian = tested on: OVCAR-5 ovarian
MDA-N = tested on: MDA-N
RPMI-8226 leukemia = tested on: RPMI-8226 leukemia
K-562 leukemia = tested on: K-562 leukemia
SK-MEL-2 melanoma = tested on: SK-MEL-2 melanoma
UACC-257 melanoma = tested on: UACC-257 melanoma
OVCAR-3 ovarian = tested on: OVCAR-3 ovarian
UO-31 renal = tested on: UO-31 renal
BT-549 breast = tested on: BT-549 breast
SK-MEL-5 melanoma = tested on: SK-MEL-5 melanoma
OVCAR-4 ovarian = tested on: OVCAR-4 ovarian
CAKI-1 renal = tested on: CAKI-1 renal
IGROV1 ovarian = tested on: IGROV1 ovarian
RXF 393 renal = tested on: RXF 393 renal
CCRF-CEM leukemia = tested on: CCRF-CEM leukemia
A549 NSCLC = tested on: A549 NSCLC
EKVX NSCLC = tested on: EKVX NSCLC
MDA-MB-231 breast = tested on: MDA-MB-231 breast
HOP-92 NSCLC = tested on: HOP-92 NSCLC
MCF7 breast = tested on: MCF7 breast
TK-10 renal = tested on: TK-10 renal
HL-60(TB) leukemia = tested on: HL-60(TB) leukemia
NCI/ADR-RES ovarian = tested on: NCI/ADR-RES ovarian
M14 melanoma = tested on: M14 melanoma

Q: What does the source list for `NNC(=O)CC(=O)Nc1cccc(Cl)c1`?
A: TGI (DU-145 prostate): > 100 µM; TGI (U251 CNS): > 100 µM; TGI (MALME-3M melanoma): > 100 µM; TGI (MDA-MB-435): > 100 µM; TGI (SF-268 CNS): > 100 µM; TGI (786-0 renal): > 100 µM; TGI (ACHN renal): > 100 µM; TGI (SF-295 CNS): > 100 µM; TGI (NCI-H23 lung): > 100 µM; TGI (T-47D breast): > 100 µM; TGI (LOX IMVI melanoma): > 100 µM; TGI (HCT-15 colon): > 100 µM; TGI (HCT-116 colon): > 100 µM; TGI (SR leukemia): > 100 µM; TGI (PC-3 prostate): > 100 µM; TGI (NCI-H522 lung): > 100 µM; TGI (HS 578T breast): > 100 µM; TGI (KM12 colon): > 100 µM; TGI (MOLT-4 leukemia): > 100 µM; TGI (SW-620 colon): > 100 µM; TGI (HT29 colon): > 100 µM; TGI (UACC-62 melanoma): > 100 µM; TGI (SF-539 CNS): > 100 µM; TGI (SK-MEL-28 melanoma): > 100 µM; TGI (HCC-2998 colon): > 100 µM; TGI (NCI-H226 lung): > 100 µM; TGI (A498 renal): > 100 µM; TGI (OVCAR-8 ovarian): > 100 µM; TGI (SNB-75 CNS): > 100 µM; TGI (SN12C renal): > 100 µM; TGI (COLO 205 colon): > 100 µM; TGI (SK-OV-3 ovarian): > 100 µM; TGI (HOP-62 NSCLC): > 100 µM; TGI (SNB-19 CNS): > 100 µM; TGI (NCI-H460 lung): > 100 µM; TGI (OVCAR-5 ovarian): > 100 µM; TGI (MDA-N): > 100 µM; TGI (RPMI-8226 leukemia): > 100 µM; TGI (K-562 leukemia): > 100 µM; TGI (SK-MEL-2 melanoma): > 100 µM; TGI (UACC-257 melanoma): > 100 µM; TGI (OVCAR-3 ovarian): > 100 µM; TGI (UO-31 renal): > 100 µM; TGI (BT-549 breast): > 100 µM; TGI (SK-MEL-5 melanoma): > 100 µM; TGI (OVCAR-4 ovarian): > 100 µM; TGI (CAKI-1 renal): > 100 µM; TGI (IGROV1 ovarian): > 100 µM; TGI (RXF 393 renal): > 100 µM; TGI (CCRF-CEM leukemia): > 100 µM; TGI (A549 NSCLC): > 100 µM; TGI (EKVX NSCLC): > 100 µM; TGI (MDA-MB-231 breast): > 100 µM; TGI (HOP-92 NSCLC): > 100 µM; TGI (MCF7 breast): > 100 µM; TGI (TK-10 renal): > 100 µM; TGI (HL-60(TB) leukemia): > 100 µM

Q: Which TGI (DU-145 prostate) does the source give for `COc1ccc(/C=C/C(=O)/C=C/c2ccc(OC)cc2OC)c(OC)c1` here?
A: 35.3 µM

Q: And the TGI (U251 CNS)?
A: 23.4 µM

Q: And the TGI (MALME-3M melanoma)?
A: 26.9 µM

Q: What about the TGI (MDA-MB-435) of the same compound?
A: 8.24 µM

Q: What about the TGI (SF-268 CNS) of the same compound?
A: 33.7 µM

Q: What about the TGI (786-0 renal) of the same compound?
A: 29 µM

Q: And the TGI (ACHN renal)?
A: 21.8 µM

Q: And the TGI (SF-295 CNS)?
A: 72.5 µM

Q: What about the TGI (NCI-H23 lung) of the same compound?
A: 43 µM

Q: And the TGI (T-47D breast)?
A: > 100 µM

Q: And the TGI (LOX IMVI melanoma)?
A: 18.1 µM

Q: What about the TGI (HCT-15 colon) of the same compound?
A: 20 µM

Q: And the TGI (NCI/ADR-RES ovarian)?
A: 91.4 µM

Q: What about the TGI (HCT-116 colon) of the same compound?
A: 21.3 µM

Q: What about the TGI (SR leukemia) of the same compound?
A: 13.1 µM

Q: And the TGI (PC-3 prostate)?
A: 44.2 µM

Q: What about the TGI (NCI-H522 lung) of the same compound?
A: 8.7 µM

Q: What about the TGI (HS 578T breast) of the same compound?
A: > 100 µM

Q: What about the TGI (KM12 colon) of the same compound?
A: > 100 µM

Q: What about the TGI (MOLT-4 leukemia) of the same compound?
A: 40 µM

Q: What about the TGI (SW-620 colon) of the same compound?
A: 83.6 µM

Q: What about the TGI (HT29 colon) of the same compound?
A: 12.7 µM

Q: And the TGI (UACC-62 melanoma)?
A: 52.5 µM

Q: What about the TGI (SF-539 CNS) of the same compound?
A: 36.7 µM

Q: And the TGI (SK-MEL-28 melanoma)?
A: 22.5 µM

Q: What about the TGI (HCC-2998 colon) of the same compound?
A: 13.3 µM

Q: What about the TGI (NCI-H226 lung) of the same compound?
A: 37.6 µM

Q: And the TGI (OVCAR-8 ovarian)?
A: 41.1 µM

Q: What about the TGI (SNB-75 CNS) of the same compound?
A: 45.1 µM

Q: And the TGI (SN12C renal)?
A: 65.2 µM

Q: And the TGI (COLO 205 colon)?
A: 51.9 µM

Q: What about the TGI (SK-OV-3 ovarian) of the same compound?
A: 37.7 µM

Q: And the TGI (HOP-62 NSCLC)?
A: 81.1 µM

Q: What about the TGI (SNB-19 CNS) of the same compound?
A: 82.8 µM

Q: What about the TGI (NCI-H460 lung) of the same compound?
A: 24 µM

Q: What about the TGI (OVCAR-5 ovarian) of the same compound?
A: 36.5 µM

Q: And the TGI (MDA-N)?
A: 6 µM

Q: And the TGI (RPMI-8226 leukemia)?
A: 18.6 µM

Q: What about the TGI (K-562 leukemia) of the same compound?
A: 8.4 µM

Q: And the TGI (SK-MEL-2 melanoma)?
A: 13.1 µM

Q: What about the TGI (UACC-257 melanoma) of the same compound?
A: 39.9 µM

Q: And the TGI (OVCAR-3 ovarian)?
A: 7.37 µM

Q: What about the TGI (UO-31 renal) of the same compound?
A: 41.3 µM

Q: And the TGI (BT-549 breast)?
A: 48 µM

Q: What about the TGI (SK-MEL-5 melanoma) of the same compound?
A: 16.9 µM

Q: And the TGI (OVCAR-4 ovarian)?
A: 46.3 µM

Q: What about the TGI (CAKI-1 renal) of the same compound?
A: 23.4 µM

Q: What about the TGI (IGROV1 ovarian) of the same compound?
A: 36.1 µM

Q: And the TGI (RXF 393 renal)?
A: 37.1 µM

Q: What about the TGI (CCRF-CEM leukemia) of the same compound?
A: 13.5 µM

Q: What about the TGI (A549 NSCLC) of the same compound?
A: 46.3 µM

Q: What about the TGI (EKVX NSCLC) of the same compound?
A: 33.3 µM

Q: What about the TGI (MDA-MB-231 breast) of the same compound?
A: 78.5 µM

Q: And the TGI (HOP-92 NSCLC)?
A: 67.5 µM

Q: What about the TGI (TK-10 renal) of the same compound?
A: 47.3 µM

Q: And the TGI (HL-60(TB) leukemia)?
A: 13.9 µM

Q: And the TGI (M14 melanoma)?
A: 36.2 µM
